Assay results: patent publication US8173668B1 (Alcon Research, Ltd., priority 2007, dated 2012)

Tests used:
guinea pigs = experiment: IOP-lowering activity in guinea pigs; type: in vivo
From the text: (§1) Some obvious drawbacks and reasons for the lack of consistent observations noted above are probably related to species differences in the effects of BK on IOP changes and on the fact that BK is a labile peptide that can easily and rapidly be inactivated by kininases and other proteases when it comes into contact with body fluids (Hall, Pharmacol. Ther., 56, 131-190, 1992). Additionally, topical ocular administration of peptides such as BK are confounded by the potential lack of or little bioavailability through the cornea to reach the anterior segment of the eye. […] This is probably related to the attainment of a relevant concentration in the aqueous humor and ciliary body when the compound was administered topical ocularly.

h-CM cells = experiment: Prostaglandin production in h-CM cells; type: cell-based, human; settings: 1-10 μM
Procedure: A functional assay to discover BK agonists may involve the measurement of prostaglandin E2 (PGE2) production (Wiernas et al. Brit. J. Pharmacol. 123: 1127-1137, 1998), for instance, in cells isolated from human or animal ocular or non-ocular tissues, or cells expressing recombinant (preferably human) BK receptors. Cells expressing BK receptors are seeded in 48-wells culture plates and allowed to reach confluence. After this time the cells are rinsed twice with 0.5 mL of phosphate buffered saline and incubated with the test agent made up in 0.5 mL Dulbeco's modified Eagle's medium (DMEM)/F-12 for 1 h at 37° C. […]
After this incubation, all tubes are placed in an ice-bath and 1 ml cold precipitating reagent supplied in the kit is added to the tubes, the content mixed and incubated for 25 min at 4° C. […] The supernatants of all tubes are decanted as specified in the kit instructions and the RIA samples analyzed on a gamma-counter. The levels of PGE2 generated by the test agent are then quantified in comparison with the PGE2-standard curve. Dose-response data for the test agent are constructed and the potency and intrinsic activity determined as described above for other assays. […]

[1] = test system: hypertensive eyes of cynomolgus monkeys; experiment: IOP in lasered (hypertensive) eyes of cynomolgus monkeys, single dose (FIG. 9); type: in vivo; settings: IOP at 8, 25 and 27.5 hours
Procedure: Hours 5 and 8 were conscious IOPs. Hours 25 and 27.5 were made under sedation. […] Error bars indicate standard deviations.
Intraocular pressure (IOP) was determined with an Alcon Pneumatonometer (Alcon Laboratories, Inc., Fort Worth, Tex.) after light corneal anesthesia with 0.1% proparacaine. Right eyes were hypertensive as a result of laser trabeculoplasty. After a baseline IOP measurement, FR-190997 was instilled in the right eyes only of 12 cynomolgus monkeys. Vehicle was instilled in the right eyes of 5-6 additional animals. Subsequent IOP measurements were taken at 8, 25, and 27.5 hours. IOP measurements are also taken on left eyes (normotensive and untreated) at each of these time points. The percent change in IOP from baseline was determined for each animal for every IOP measurement (Sharif et al. J. Ocular Pharmacol. Ther. 17: 305-317, 2001; May et al., J Pharmacol Exp Ther. 306: 301-309, 2003; Sharif et al. Invest. Ophthalmol. Vis. Res. 47: 4001-4010, 2006). Group mean and standard error of the mean (SEM) were calculated for each time point.

[2] = test system: rabbits (New Zealand White and Dutch-Belted); experiment: IOP-lowering activity in rabbits; type: in vivo
From the text: as §1
IOP is determined with an applanation pneumatonometer after light corneal anesthesia with 0.1% proparacaine. After baseline IOP measurements are taken, one eye of each of 7-10 (or both eyes of 5) rabbits per compound dose is topically dosed with compound. Either the contralateral eye is dosed with vehicle or a separate group of rabbits is used for vehicle control. Subsequent IOP measurements are taken at 0.5, 1, 2, 3, and 4 hours. In cases where the compound has poor ocular bioavailability, the compound may need to be administered intracamerally or intravitreally in order to observe the IOP-lowering efficacy.

cats = experiment: IOP-lowering activity in cats; type: in vivo
From the text: as §1

`CNC(=O)c1ccc(/C=C/C(=O)NCC(=O)N(C)c2ccc(Cl)c(COc3cccc4c(OCc5ccccn5)cc(C)nc34)c2Cl)cc1` [FR-190997] was tested, and the “ability to lower IOP” value (guinea pigs) was “unable to lower IOP”, the production of prostaglandins (h-CM cells) was 1.75 fold above basal and the “effect on IOP compared with vehicle” value [1] was “lowered IOP compared with vehicle”. The “ability to lower IOP” value [2] was “unable to lower IOP” and the “ability to lower IOP” value (cats) was “unable to lower IOP”.
